Patent US20200338158A1, “Therapeutic Drug for Non-Alcoholic Fatty Liver Disease” (Shanghai Hep Pharmaceutical Co., Ltd., priority 2017, published 2020)
“Also recorded” adds a separate entry of the source.

Columns and labels:
Type in all cases: in vivo
[1] = test system: C57BL6 mice; test: Blood (serum) biochemistry test, mouse NASH model
Text: (§1) In this example, a mouse nonalcoholic steatohepatitis (NASH) model was used to evaluate the effect of hepalatide (L47) on pathological changes and metabolism level of NASH, and to determine whether L47 can improve the pathological changes of NASH, so as to provide reference for pharmacodynamic evaluation of L47 before clinical treatment.
Total cholesterol (TC), triglyceride (TG), total bilirubin (TBIL), high-density lipoprotein cholesterol (HDL-C), low-density lipoprotein cholesterol (LDL-C), alkaline phosphatase (ALP), albumin (ALB), aspartate aminotransferase (AST) and alanine aminotransferase (ALT) were provided by Shanghai Adicon Company and tested by automatic biochemical analyzer.
Total bile acid (TBA), very low density lipoprotein (VLDL): provided by Nanjing Jiancheng Bioengineering Institute.
At week 8 and week 16, blood was taken from fasted mice (fasted for 12 hours) after anesthesia, and levels of serum TG, TC, ALB, ALP, ALT, AST, HDL-C, LDL-C, VLDL, TBIL, TBA, insulin (Ins) were measured.

[2] = test system: C57BL6 mice; test: Liver histology (HE, Oil Red O, Masson, TUNEL staining), mouse NASH model; details: for liver Masson staining (fibrous cords) / liver Oil Red O staining (fat accumulation) / liver Masson staining (fibrous depositions): vs model group
Method: as §1
At week 8 and week 16, hematoxylin eosin (HE) staining, trichrome staining (Masson staining), Oil Red 0 staining and apoptosis (TUNEL) staining were performed on the liver tissue sections of mice.

[3] = test system: C57BL6 mice; test: Body weight and general observation of abdominal fat, mouse NASH model
Text: as §1
Each experimental group was provided with sufficient feed and water daily with free diet, and water was changed twice a week for sugar water-added group, and the remaining amount of feed was weighed and added to 150 g each week for each group in addition to the normal control group, and body weight of mice was weighed each week for each group.
At week 8 and week 16, liver was separated by dissection after anesthesia and blood collection, and pathological changes of liver tissues and accumulation of abdominal fat were grossly observed by the naked eye.

[4] = week 8, treatment groups (HL1, HH1) vs model group
[5] = week 8, treatment groups vs model group
[6] = week 8, vs model group, HL1 (L47 10 mg/kg*2/d s.c. from start)
[7] = week 16, treatment groups vs model group (conclusions)
[8] = week 16, vs model group, HH2 (L47 30 mg/kg*2/d s.c., started after 8 weeks), 30 mg/kg
[9] = week 16, vs model group, HL1 (L47 10 mg/kg*2/d s.c. from start)
[10] = week 16, vs model group, HL2 (L47 10 mg/kg*2/d s.c., started after 8 weeks), p<0.05
[11] = week 16, vs model group, high dose group 1 (L47 30 mg/kg*2/d s.c. from start), 30 mg/kg
[12] = week 8, treatment groups (HL1, HH1)
[13] = week 16, HH1 (L47 30 mg/kg*2/d s.c. from start)
[14] = week 16, HH2 (L47 30 mg/kg*2/d s.c., started after 8 weeks)
[15] = week 16, HL1 (L47 10 mg/kg*2/d s.c. from start)
[16] = week 16, HL2 (L47 10 mg/kg*2/d s.c., started after 8 weeks)

## hepalatide [L47]
[1]; at week 20 (so in the source), HH1 (L47 30 mg/kg*2/d s.c. from start), p<0.01
  serum LDL-C level: decreased
[1]; at week 20 (so in the source), HL1 (L47 10 mg/kg*2/d s.c. from start), p≤0.001
  serum LDL-C level: decreased
[1]; at week 20 (so in the source), treatment groups except HH2, vs model group, p<0.01
  serum HDL-C level: decreased
[1]; week 8, HH1 (L47 30 mg/kg*2/d s.c. from start)
  serum LDL-C level: decreased
[1]; week 8, HL1 (L47 10 mg/kg*2/d s.c. from start), p<0.05
  serum TC level: decreased significantly
[1]; [4]
  serum AST level: decreasing trend; also recorded: decreased
  serum TC level: significantly decreased
  serum TG level: significantly decreased
[1]; week 8, treatment groups (HL1, HH1) vs model group, p≤0.001
  serum ALT level: significantly decreased
[1]; [5]
  serum ALB level: decreased
  serum ALP level: no significant difference
  serum HDL level: no significant difference
  serum LDL level: decreased
  serum VLDL level: no significant difference
[1]; [6]
  serum HDL-C level: decreased
  serum LDL-C level: decreased
[1]; week 16, HH2 (L47 30 mg/kg*2/d s.c., started after 8 weeks), p<0.001
  serum ALB level: slightly decreased
[1]; week 16, HL2 (L47 10 mg/kg*2/d s.c., started after 8 weeks), p<0.001
  serum ALB level: slightly decreased
[1]; week 16, among the groups
  serum ALP level: no significant difference
[1]; week 16, other groups (HL1, HH1)
  serum ALB level: no difference
[1]; week 16, other groups except HL2 (HL1, HH1, HH2) vs model group
  serum VLDL level: increased
[1]; week 16, treatment groups (HL1, HH1, HL2, HH2) vs model group, p<0.001, p<0.001, p≤0.001, p<0.05
  serum TC level: significantly decreased
[1]; week 16, treatment groups vs model group
  serum TG level: did not decrease; also recorded: no significant difference
[1]; [7]
  serum HDL level: decreased
  serum LDL level: decreased
  serum VLDL level: no significant difference
[1]; [8]
  serum ALT level: decreasing trends; also recorded: decreased significantly
  serum AST level: decreasing trends; also recorded: decreased significantly
[1]; [9]
  serum ALT level: did not decrease
  serum AST level: did not decrease
[1]; [10]
  serum ALT level: significantly decreased
  serum AST level: significantly decreased
[1]; [11]
  serum ALT level: did not decrease; also recorded: increasing trends
  serum AST level: did not decrease; also recorded: increasing trends
[2]; week 8, low and high dose groups (HL1, HH1)
  liver HE staining (fat vacuoles, inflammatory cells): only less and smaller fat vacuoles were formed, with less inflammatory cells
[2]; [12]
  liver Oil Red O staining (fat droplet vacuoles): only smaller and less vacuoles
  liver TUNEL staining (apoptosis): effectively improved
[2]; week 8, treatment groups (HL1, HH1) vs model group, p<0.001, p<0.001
  TUNEL semi-quantitative counting (number of apoptotic bodies): significantly decreased
[2]; [13]
  liver HE staining (steatosis, inflammatory cell infiltration): severe steatosis
  liver TUNEL staining (apoptosis): no improvement
  liver Masson staining (fibrous cords): no significant difference
  liver Oil Red O staining (fat accumulation): only slightly reduced
[2]; [14]
  liver TUNEL staining (apoptosis): effectively improved
  liver Masson staining (fibrous depositions): decreased
  liver Oil Red O staining (fat accumulation): significantly reduced
[2]; week 16, HH2 (L47 30 mg/kg*2/d s.c., started after 8 weeks), p<0.01
  TUNEL semi-quantitative counting (number of apoptotic bodies): significantly decreased
[2]; [15]
  liver TUNEL staining (apoptosis): no improvement
  liver Masson staining (fibrous cords): no significant difference
  liver Oil Red O staining (fat accumulation): only slightly reduced
[2]; [16]
  liver TUNEL staining (apoptosis): effectively improved
  liver Masson staining (fibrous depositions): decreased
  liver Oil Red O staining (fat accumulation): significantly reduced
[2]; week 16, HL2 (L47 10 mg/kg*2/d s.c., started after 8 weeks), p<0.01
  TUNEL semi-quantitative counting (number of apoptotic bodies): significantly decreased
[2]; week 16, other groups (HL1, HL2, HH2)
  liver HE staining (steatosis, inflammatory response): slight steatosis and inflammatory response
[3]; week 8, L47 treatment groups vs model group
  body weight: significantly decreased
[3]; week 8, treatment groups
  abdominal fat deposition (general observation): significant effect
[3]; week 16, among each group
  abdominal fat deposition (general observation): no significant difference
[3]; week 16, low dose group 2
  body weight: decrease
[3]; week 16, treatment groups except low dose group 2, vs model group
  body weight: no significant difference
